According to US20240366617A1, “NOVEL CRYSTALLINE FORMS OF A NUCLEOSIDE COMPOUND AND SALTS THEREOF” (priority 2021, published 2024):
Values after ≈ are worked out from the molar mass of the structure shown. Read-outs that look alike come from different tables or passages of the source.

How the values were obtained:
[1] = Study on the stability of influence factors (40° C./75% RH open, 60° C. sealed, 7 days; HPLC and XRPD); assay type: physicochemical; settings: for Purity at day 7 (Peak area %) 40° C./75% RH: 40° C./75% RH (open); for Purity at day 7 (Peak area %) 40° C./75% RH / Purity at day 7 (Peak area %) 60° C.: 7 days, HPLC; for Purity at day 7 (Peak area %) 60° C.: 60° C. (sealed sample bottle); for physical and chemical stability / purity and crystalline structure: 60° C. and 40° C./75% RH for 7 days; for Purity at day 0 (Peak area %): day 0, HPLC
From the text: X-ray powder diffraction patterns were collected by using a zero-background sample disk on a German Bruker D8 Advance X-ray diffractometer equipped with an automatic sampler. The used radiation source is Cu k α (λ=1.5418 Å), and the light tube voltage is set at 40 KV and the light tube current is set at 40 mA. The divergent slit of X-rays is 0.6 mm. A proper amount of sample was placed in the center of the zero-background sample tray under the environmental condition, the sample was lightly pressed with a clean glass slide to obtain a flat plane, and the zero-background sample rack was fixed. Diffraction analysis of the sample was performed with a scanning step size of 0.02° (2θ) in the range of 3-40° (2θ). The software used for data collection is DIFFRAC.COMMANDER, and the data is analyzed and presented using DIFFRAC.EVA.
The instrument used for liquid chromatography analysis is Agilent HPLC 1260 series,
ATV-014 free base crystalline form I, ATV-014 hydrobromate crystalline form I, and ATV-014 p-toluenesulfonate crystalline form I were taken and placed at 40° C./75% RH (open) and 60° C. (sealed sample bottle) for 7 days. High-performance liquid chromatography and X-ray powder diffraction detection were performed at 0 and 7 days, respectively.

[2] = Solubility study in biological media (FaSSIF, FeSSIF, SGF, water) at 37° C.; assay type: physicochemical; settings: for solubility at 0.5 h / solubility at 2 h / solubility at 24 h: thermodynamic from solid
Protocol: According to the results of salt formation screening research, the solubilities of free base crystalline form I and p-toluenesulfonate crystalline form I at 0.5 hours, 2 hours, and 24 hours were measured in FaSSIF, FeSSIF, SGF, and water at 37° C.

[3] = Moisture absorption on placement under RH (open) conditions for one week; assay type: physicochemical; settings: for moisture absorption: one week
From the text: • (1) The compound ATV-014 hydrobromate crystalline form I provided herein is placed under 70% RH (open) conditions for one week, the moisture absorption is 0.2%, and under 90% RH (open) conditions for one week, the moisture absorption is 18.8%. • (2) The compound ATV-014 p-toluenesulfonate crystalline form I provided herein is placed under 30% RH (open) conditions for one week, the moisture absorption is 0.4%, and under 90% RH (open) conditions for one week, the moisture absorption is 0.5%.

DVS hygroscopicity test = assay type: physicochemical
[4] = Activity of ATV014 compared to GS-441524
From the text: (§1) The compound ATV014 is a derivative of GS-441524.

[5] = Bioavailability of ATV014 compared to GS-441524
From the text: as §1

[6] = Placement under 40° C./75% RH (open) conditions for one week (hydrochloride); assay type: physicochemical
[7] = in vivo in mice, compared with Remdesivir; cited from earlier work
[8] = compared with Remdesivir; cited from earlier work
[9] = after placement under 30% RH and 90% RH (open) for one week

Purity at day 7 (Peak area %) 40° C./75% RH [1] | Purity at day 7 (Peak area %) 60° C. [1] | physical and chemical stability [1] | purity and crystalline structure [1] | Purity at day 0 (Peak area %) [1] | pH (solution pH) ([2]; FaSSIF, pH 6.45, 0.5 h) | pH (solution pH) ([2]; FaSSIF, pH 6.45, 2 h) | pH (solution pH) ([2]; FaSSIF, pH 6.45, 24 h) | pH (solution pH) ([2]; FeSSIF, pH 4.95, 0.5 h) | pH (solution pH) ([2]; FeSSIF, pH 4.95, 2 h) | pH (solution pH) ([2]; FeSSIF, pH 4.95, 24 h) | pH (solution pH) ([2]; SGF, pH 1.24, 0.5 h) | pH (solution pH) ([2]; SGF, pH 1.24, 2 h) | pH (solution pH) ([2]; SGF, pH 1.24, 24 h) | pH (solution pH) ([2]; water, pH 5.53, 0.5 h) | pH (solution pH) ([2]; water, pH 5.53, 2 h) | pH (solution pH) ([2]; water, pH 5.53, 24 h) | moisture absorption ([3]; 90% RH (open)) | hygroscopicity (DVS results) (DVS hygroscopicity test) | SMILES | solid form during / after the DVS test (DVS hygroscopicity test) | other results
98.71% | 98.62% | good | remained unchanged | 98.60% | 5.7 | 5.67 | 5.85 | 4.65 | 4.62 | 4.83 | 0.69 | 0.70 | 1.20 | 2.05 | 2.07 | 2.43 | 0.5% | slight hygroscopicity | Cc1ccc(S(=O)(=O)O)cc1.N#C[C@@]1(c2ccc3c(N)ncnn23)O[C@H](COC(=O)C2CCCCC2)[C@@H](O)[C@H]1O.O | no change in the crystalline structure | solubility [2]: higher than 5 mg/mL; solubility in water relative to that of free base [2]: 30 times; solubility ([2]; pH 1.24): >5000 µg/mL; XPRD (solid form of the residue) ([2]; pH 4.95): free base; XPRD (solid form of the residue) ([2]; pH 5.53): free base; XPRD (solid form of the residue) ([2]; pH 6.45): free base; moisture absorption ([3]; 30% RH (open)): 0.4%; crystalline structure and chemical purity [3, 9]: have not changed; physical and chemical stability [3, 9]: good; hygroscopic weight gain (DVS hygroscopicity test; 90% RH): 0.5%
 |  |  |  |  |  |  |  |  |  |  |  |  |  |  |  |  |  |  | N#C[C@@]1(c2ccc3c(N)ncnn23)O[C@H](COC(=O)C2CCCCC2)[C@@H](O)[C@H]1O [ATV014] |  | activity [4]: better; bioavailability [5]: better
98.09% | 98.10% | good | remained unchanged | 98.12% | 6.45 | 6.44 | 6.58 | 4.76 | 4.74 | 4.96 | 0.95 | 0.9 | 1.26 | 7.24 | 6.45 | 6.5 |  |  | N#C[C@@]1(c2ccc3c(N)ncnn23)O[C@H](COC(=O)C2CCCCC2)[C@@H](O)[C@H]1O [ATV-014 free base crystalline form I] |  | solubility ([2]; SGF, 37° C., 0.5-24 h, medium not named in the sentence for the p-toluenesulfonate): 2500 to 2900 µg/mL; solubility at 0.5 h ([2]; simulated gastric fluid, SGF, pH 1.24, 0.5 h, 37° C.): 2480 µg/mL (≈ 6180 µM); solubility at 2 h ([2]; simulated gastric fluid, SGF, pH 1.24, 2 h, 37° C.): 2560 µg/mL (≈ 6380 µM); solubility at 24 h ([2]; simulated gastric fluid, SGF, pH 1.24, 24 h, 37° C.): 2860 µg/mL (≈ 7120 µM); solubility at 0.5 h ([2]; FaSSIF, pH 6.45, 0.5 h, 37° C.): 7 µg/mL (≈ 17.4 µM); solubility at 2 h ([2]; FaSSIF, pH 6.45, 2 h, 37° C.): 10 µg/mL (≈ 24.9 µM); solubility at 24 h ([2]; FaSSIF, pH 6.45, 24 h, 37° C.): 21 µg/mL (≈ 52.3 µM); solubility at 0.5 h ([2]; FeSSIF, pH 4.95, 0.5 h, 37° C.): 14 µg/mL (≈ 34.9 µM); solubility at 2 h ([2]; FeSSIF, pH 4.95, 2 h, 37° C.): 19 µg/mL (≈ 47.3 µM); solubility at 24 h ([2]; FeSSIF, pH 4.95, 24 h, 37° C.): 20 µg/mL (≈ 49.8 µM); solubility at 0.5 h ([2]; water, pH 5.53, 0.5 h, 37° C.): 5 µg/mL (≈ 12.5 µM); solubility at 2 h ([2]; water, pH 5.53, 2 h, 37° C.): 6 µg/mL (≈ 14.9 µM); solubility at 24 h ([2]; water, pH 5.53, 24 h, 37° C.): 5 µg/mL (≈ 12.5 µM)
Liquefaction, | 99.57% |  |  | 99.46% |  |  |  |  |  |  |  |  |  |  |  |  | 18.8% | has hygroscopicity | Br.N#C[C@@]1(c2ccc3c(N)ncnn23)O[C@H](COC(=O)C2CCCCC2)[C@@H](O)[C@H]1O [ATV-014 hydrobromide crystalline form I] | transforms into an amorphous glassy solid | state of the sample ([1]; 40° C./75% RH for 7 days): the sample liquefies; purity and crystalline form ([1]; 60° C. for 7 days): remained unchanged; moisture absorption ([3]; 70% RH (open)): 0.2%; hygroscopic weight gain (DVS hygroscopicity test; 70% RH, after equilibrating for 30 to 120 minutes): 0.2%; hygroscopic weight gain (DVS hygroscopicity test; 90% RH): 18.8%
 |  |  |  |  |  |  |  |  |  |  |  |  |  |  |  |  |  |  | Cl.N#C[C@@]1(c2ccc3c(N)ncnn23)O[C@H](COC(=O)C2CCCCC2)[C@@H](O)[C@H]1O [ATV-014 hydrochloride crystalline form] |  | crystalline structure and chemical purity [6]: have not changed; physical and chemical stability [6]: good
 |  |  |  |  |  |  |  |  |  |  |  |  |  |  |  |  |  |  | N#C[C@@]1(c2ccc3c(N)ncnn23)O[C@H](CO)[C@@H](O)[C@H]1O [GS-441524] |  | antiviral effect [7]: superior to that of Remdesivir; safety [8]: better safety
